This assay deals with imDAPs. Nature of the assay: imDAP expansion: cell morphology, cell number (Vi-cell cytometer), expansion fold, Population Doubling Time. The class given is cell-based, human. The conditions noted are these: for attachment and morphology of imDAPs on the coated surface: Example 8, coating 1 μg/cm^2, day 4, FIG. 4A. The procedure:
imDAPs were produced according to the method described in CN201910169525.0. The imDAPs (P0) were seeded on VTN-coated plates (1 μg/cm^2) at a density of 1×10^5 cells/cm^2 in the expansion medium (50% DMEM/F12, 50% Neurobasal™ medium, 1% (v/v) Glutamax, 2% (v/v) B27 (50×), 0.2 μM LDN193189, 3 μM CHIR99021, 100 ng/mL FGF8b) in the absence or presence of 5 μM Blebbistatin. In case where Blebbistatin is present, Blebbistatin was either removed 24 hrs after plating or present throughout the culture period. The medium was changed every day for 5 days.
imDAPs were produced according to the method described in CN201910169525.0. The imDAPs (P0) were seeded on VTN-coated plates (1 μg/cm^2) at a density of 1×10^5 cells/cm^2 in the expansion medium (50% DMEM/F12, 50% Neurobasal™ medium, 1% (v/v) Glutamax, 2% (v/v) B27 (50×), 3 μM CHIR99021, 100 ng/mL FGF8b, […]) in the absence or presence of 0.2 μM LDN193189. The medium was changed every day for 5 days.
imDAPs were produced according to the method described in CN201910169525.0. The imDAPs (P0) were seeded on VTN-coated plates (1 μg/cm^2) at a density of 1×10^5 cells/cm^2 in the expansion medium (50% DMEM/F12, 50% Neurobasal™ medium, 1% (v/v) Glutamax, 2% (v/v) B27 (50×), 0.2 μM LDN193189, 3 μM CHIR99021, 100 ng/mL FGF8b, 5 μM Blebbistatin). The medium was changed every day. When imDAPs reach 100% confluence (4-5 days), cells were passaged enzymatically with 1× TrypLE, centrifuged at 250 g for 5 minutes, counted and replaced on new VTN-coated plates (1 μg/cm^2) at a density of 1×10^5 cells/cm^2 in the expansion medium. imDAPs were continuously expanded for 6 passages. At each passage, imDAPs were harvested at an expansion fold 5˜10 (over the initial number of imDAPs plated).
imDAPs were produced according to the method described in CN201910169525.0. The imDAPs (P0) were seeded on DLL4-coated ([…]), VTN-coated (1 μg/cm^2) and DLL4/VTN-coated ([…]) plates at a low density of 1×10^4 cells/cm^2 respectively, and cultured in the expansion medium in the absence or presence of 5 µM SB431542. Medium was replaced every 3rd day until reaching 100% confluence (6 days) for cell collection. The typical cell morphology on day 4 was recorded (FIG. 4A). The cell number of each group was counted by Vi-cell cytometer (FIG. 4B). The cells of each group were stained with Foxa2-PE antibody (BD, #561589), the percentage of Foxa2+ imDAPs were analyzed by flow cytometry (FIG. 4C). The expansion medium used in this example contained the following components: 50% DMEM/F12, 50% Neurobasal™ medium, 1% (v/v) Glutamax, 1% (v/v) B27, 50 μg/ml ascorbic acid, 0.2 μM LDN193189, 100 ng/ml FGF8b, 3 μM CHIR99021 and 10 μM Y27632.
imDAPs were produced according to the method described in CN201910169525.0. The imDAPs (P0) were seeded on DLL4/VTN-coated (1 μg/cm^2 for each) plates at a low density of 1×10^4 cells/cm^2, and cultured in the expansion medium (EM1, EM2, EM3, EM4). Medium was replaced every 3rd day until reaching 100% confluence (6 days) for cell collection. EM1 used in Example 9 contained the following components: 50% DMEM/F12, 50% Neurobasal™ medium, 1% (v/v) Glutamax, 1% (v/v) B27 (50×), […], 3 μM CHIR99021, 5 μM SB431542 and 10 μM Y27632. EM2 used in Example 9 contained the following components: 50% DMEM/F12, 50% Neurobasal™ medium, 1% (v/v) Glutamax, 1% (v/v) B27 (50×), 50 μg/ml ascorbic acid, […] LDN193189, 3 μM CHIR99021, 5 μM SB431542 and 10 μM Y27632. EM3 used in Example 9 contained the following components: 50% DMEM/F12, 50% Neurobasal™ medium, 1% (v/v) Glutamax, 1% (v/v) B27 (50×), 50 μg/mL ascorbic acid, […], 100 ng/ml FGF8b, 3 μM CHIR99021, 5 μM SB431542 and 10 μM Y27632. EM4 used in Example 9 contained the following components: 50% DMEM/F12, 50% Neurobasal™ medium, 1% (v/v) Glutamax, 1% (v/v) B27 (50×), 50 μg/ml ascorbic acid, 0.2 μM LDN193189, 10 ng/ml FGF2, 3 μM CHIR99021, 5 μM SB431542 and 10 μM Y27632. […]

For the molecule `c1ccc2c(-c3cnn4cc(-c5ccc(N6CCNCC6)cc5)cnc34)ccnc2c1` [LDN193189], the “cell morphology of expanded imDAPs” value (Example 2, with vs without 0.2 μM LDN193189, VTN-coated plates, 5 days, FIG. 1B) is “cultured without LDN193189 showed more flattened morphology”. Moreover, the “imDAP expansion (overall conclusion)” value (Example 9) was “had no additional effects on imDAP expansion”. Further, the “cell number during expansion” value (Example 9, added to medium with CHIR99021, SB431542 and Y27632, DLL4/VTN-coated, 6 days, FIG. 5B) is given as “had no additional effect on increasing the cell number during expansion”.
On to “DLL4: Notch agonist used as second coating matrix”, for which the “attachment and morphology of imDAPs on the coated surface” value is reported as “could not support the attachment of imDAPs”.

B1: VTN: vitronectin, first coating matrix that supports cell adhesion (protein, UniProt P04004 20-478, looked up)
Vitronectin: DQESCKGRCTEGFNVDKKCQCDELCSYYQSCCTDYTAECKPQVTRGDVFTMPEDEYTVYDDGEEKNNATVHEQVGGPSLTSDLQAQSKGNPEQTPVLKPEEEAPAPEVGASKPEGIDSRPETLHPGRPQPPAEEELCSGKPFDAFTDLKNGSLFAFRGQYCYELDEKAVRPGYPKLIRDVWGIEGPIDAAFTRINCQGKTYLFKGSQYWRFEDGVLDPDYPRNISDGFDGIPDNVDAALALPAHSYSGRERVYFFKGKQYWEYQFQHQPSQEECEGSSLSAVFEHFAMMQRDSWEDIFELLFWGRTSAGTRQPQFISRDWHGVPGQVDAAMAGRIYISGMAPRPSLAKKQRFRHRNRKGYRSQRGHSRGRNQNSRRPSRATWLSLFSSEESNLGANNYDDYRMDWLVPATCEPIQSVFFFSGDKYYRVNLRTRRVDTVDPPYPRSIAQYWLGCPAPGHL
Regarding B1, the “attachment and morphology of imDAPs on the coated surface” value was “showed flattened morphology”.

For the origin of these results see US12391919B2, “Culture medium, coating matrix and method for maturing midbrain dopaminergic progenitor cells” (NUWACELL BIOTECHNOLOGIES CO., LTD., priority 2022, dated 2025).
